According to ChEMBL document CHEMBL5154727, “Discovery of novel diphenylbutene derivative ferroptosis inhibitors as neuroprotective agents” (Eur J Med Chem, 2022):
The source made the active and inactive calls. The calls are words filed in the database; no cut-off is given here.

How the values were obtained:
[1] = system: HT-22; assay: Anti-ferroptotic activity against Erastin-induced ferroptosis in […] cells assessed as […] cell viability measured after 24 hrs by MTT assay; type: functional, cell-based; conditions: Mus musculus, HT-22, 24 h
[2] = Permeability of the compound in PBS/EtOH buffer (70:30) incubated for 10 hrs by UV plate reader based PAMPA-BBB assay; type: ADME; conditions: read-out: permeability
[3] = system: HT-22; assay: Reduction in ROS accumulation in RSL-3 treated […] cells assessed as reduction in fluorescence intensity at 1 uM incubated for 4 hrs by C11-BODIPY staining based confocal laser scanning microscopic analysis; type: functional, cell-based; conditions: Mus musculus
[4] = system: HT-22; assay: Inhibition of RSL-3 induced Ptgs2 mRNA expression in […] cells measured after 4 hrs by quantitative PCR analysis; type: functional, cell-based; conditions: Mus musculus, dose 1.25-5 µM
[5] = system: HT-22; assay: Cytotoxicity against […] cells at 40 uM; type: toxicity, cell-based; conditions: mouse, ht-22, 40 µM
[6] = system: HT-22; assay: Anti-ferroptotic activity against Erastin-induced ferroptosis in […] cells assessed as […] cell viability measured after 24 hrs by MTT assay relative to control; type: functional, Mus musculus
[7] = system: HT-1080; assay: Anti-ferroptotic activity against siRNA-mediated GPX4 knockdown induced ferroptosis in human HT-1080 cells at 1 uM preincubated for 12 hrs in Opti-MEM medium followed by compound addition and measured after 36 hrs; type: functional, cell-based
[8] = system: HT-22; assay: Anti-ferroptotic activity against RSL-3-induced morphological changes in […] cells assessed as retention of cell morphology at 1 uM measured after 24 hrs; type: functional, cell-based; conditions: Mus musculus
[9] = system: HT-22; assay: Effect on intracellular Fe2+ level in […] cells assessed as fluorescence intensity at 5 uM measured after 10 hrs by Hoechst/FerroOrange staining based confocal laser microscopy; type: functional, cell-based; conditions: Mus musculus
[10] = system: HT-22; assay: Anti-ferroptotic activity against Erastin-induced ferroptosis in […] cells assessed as inhibition of cell death measured after 24 hrs by MTT assay; type: functional, cell-based; conditions: Mus musculus, HT-22, 24 h
[11] = system: HT-22; assay: Anti-ferroptotic activity against RSL-3 induced ferroptosis in […] cells assessed as inhibition of cell death measured after 24 hrs by MTT assay; type: functional, cell-based; conditions: Mus musculus, HT-22, 24 h
[12] = system: HT-1080; assay: Anti-ferroptotic activity against siRNA-mediated GPX4 knockdown induced ferroptosis in human HT-1080 cells at 5 uM preincubated for 12 hrs in Opti-MEM medium followed by compound addition and measured after 36 hrs; type: functional, cell-based
[13] = system: HT-22; assay: Anti-ferroptotic activity against RSL-3-induced morphological changes in […] cells assessed as retention of cell morphology measured after 24 hrs; type: functional, cell-based; conditions: Mus musculus, dose 1.25-5 µM, DDE = dose-dependent effect
[14] = system: HT-22; assay: Reduction in ROS accumulation in RSL-3 treated […] cells assessed as reduction in fluorescence intensity at 5 uM incubated for 4 hrs by C11-BODIPY staining based confocal laser scanning microscopic analysis; type: functional, cell-based; conditions: Mus musculus
[15] = system: HT-22; assay: Reduction in lipid ROS accumulation in RSL-3 treated […] cells incubated for 4 hrs by C11-BODIPY staining based flow cytometric analysis; type: functional, cell-based; conditions: Mus musculus, dose 1.25-5 µM, DDE = dose-dependent effect
[16] = system: HT-22; assay: Reduction in cytosolic ROS accumulation in RSL-3 treated […] cells incubated for 4 hrs by H2DCFDA fluorescent probe based flow cytometry method; type: functional, cell-based; conditions: Mus musculus, dose 1.25-5 µM, DDE = dose-dependent effect
[17] = system: HT-22; assay: Upregulation of FSP1 protein level in […] cells measured after 6 hrs by Western blot analysis; type: functional, cell-based; conditions: Mus musculus, dose 1.25-5 µM
[18] = system: HT-22; assay: Upregulation of FSP1 mRNA level in […] cells measured after 6 hrs by quantitative PCR analysis; type: functional, cell-based; conditions: Mus musculus, dose 1.25-5 µM
[19] = system: Rattus norvegicus; assay: Neuroprotective activity against middle cerebral artery occlusion-induced ischemia-reperfusion injury Sprague-Dawley rat model assessed as reduction in infarct volume at 20 mg/kg, ip measured after 24 hrs by TTC staining based assay; type: functional, organism-based
[20] = system: Rattus norvegicus; assay: Neuroprotective activity against middle cerebral artery occlusion-induced ischemia-reperfusion injury Sprague-Dawley rat model assessed as reduction in neurobehavioral defects at 20 mg/kg, ip measured after 24 hrs by Longa test; type: functional, organism-based
[21] = system: Rattus norvegicus; assay: Neuroprotective activity against middle cerebral artery occlusion-induced ischemia-reperfusion injury Sprague-Dawley rat model assessed as morphological changes at 20 mg/kg, ip measured after 24 hrs by H and E staining-based assay; type: functional, organism-based
[22] = system: Rattus norvegicus; assay: Neuroprotective activity against middle cerebral artery occlusion-induced ischemia-reperfusion injury Sprague-Dawley rat model assessed as morphological changes at 20 mg/kg, ip measured after 24 hrs by Nissl staining based assay; type: functional, organism-based
[23] = system: Rattus norvegicus; assay: Neuroprotective activity against middle cerebral artery occlusion-induced ischemia-reperfusion injury Sprague-Dawley rat model assessed as reduction in PTGS2 mRNA expression level at 20 mg/kg, ip measured after 24 hrs by TTC staining based assay; type: functional, organism-based
[24] = system: Rattus norvegicus; assay: Neuroprotective activity against middle cerebral artery occlusion-induced ischemia-reperfusion injury Sprague-Dawley rat model assessed as reduction in MDA level at 20 mg/kg, ip measured after 24 hrs by TTC staining based assay; type: functional, organism-based
[25] = system: Rattus norvegicus; assay: Neuroprotective activity against middle cerebral artery occlusion-induced ischemia-reperfusion injury Sprague-Dawley rat model assessed as reduction in 4-HNE level at 20 mg/kg, ip measured after 24 hrs by TTC staining based assay; type: functional, organism-based
[26] = system: HT-22; assay: Upregulation of FSP1 protein level in […] cells assessed as increase in reduced to oxidized COQ10 ratio measured after 6 hrs by Western blot analysis; type: functional, cell-based; conditions: Mus musculus
[27] = Metal chelating activity assessed as compound-Fe2+ complex formation at 50 uM by UV-Vis spectroscopic analysis
[28] = Metal chelating activity assessed as compound-Fe3+ complex formation at 50 uM by UV-Vis spectroscopic analysis

O=C(/C(=C/C=C/c1ccccc1)c1cccc(O)c1)N1CCN(c2ncccn2)CC1
EC50 [1]: > 20 µM | Papp at 10 h [2]: 14.5 ×10⁻⁶ cm/s

COC(=O)c1ccc([C@H]2c3[nH]c4ccccc4c3C[C@H](C(=O)OC)N2C(=O)CCl)cc1
Activity [3]: Active | inhibition [4]: Active

O=C(/C(=C/C=C/c1ccc(O)cc1)c1ccccc1)N1CCN(c2ncccn2)CC1
Activity [5]: Non-Toxic | Activity [6]: 81.9% | EC50 [1]: 12 µM | Papp at 10 h [2]: 5.2 ×10⁻⁶ cm/s

COc1cccc(/C=C/C=C(/C(=O)N2CCN(c3ncccn3)CC2)c2ccccc2)c1
EC50 [1]: > 20 µM | Papp at 10 h [2]: 10.2 ×10⁻⁶ cm/s

CCOC(=O)c1ccc(NC2CCCCC2)c(N)c1
Activity [7]: Active | Activity [8]: Active | Activity [3]: Active

O=C(/C(=C/C=C/c1cccc(O)c1)c1ccccc1)N1CCN(c2ncccn2)CC1
EC50 [1]: > 20 µM | Papp at 10 h [2]: 9.9 ×10⁻⁶ cm/s

COc1ccc(/C=C/C=C(/C(=O)N2CCN(c3ncccn3)CC2)c2ccccc2)c(OC)c1
EC50 [1]: > 20 µM | Papp at 10 h [2]: 18.9 ×10⁻⁶ cm/s

COc1cc(/C=C/C=C(/C(=O)N2CCN(c3ncccn3)CC2)c2ccccc2)ccc1O
Activity [9]: Active | Activity [6]: 76.7% | EC50 [1]: 1.7 µM | Papp at 10 h [2]: 15.3 ×10⁻⁶ cm/s | EC50 [10]: 1.7 µM | EC50 [11]: 1.7 µM | Activity [12]: Active | Activity [13]: Dde | Activity [14]: Active | Activity [15]: Dde | Activity [16]: Dde | inhibition ([4]; DDE = dose-dependent effect): Dde | Activity [17]: Active | Activity [18]: Active | Activity [19]: Active | Activity [20]: Active | Activity [21]: Active | Activity [22]: Active | Activity [23]: Active | Activity [24]: Active | Activity [25]: Active | Activity [26]: Active

COc1cc(/C=C/C=C(/C(=O)N2CCN(c3ncccn3)CC2)c2cccc(O)c2)ccc1O
Activity [6]: 84.2% | EC50 [1]: 4.5 µM | Papp at 10 h [2]: 5.2 ×10⁻⁶ cm/s

COc1ccccc1/C=C/C=C(/C(=O)N1CCN(c2ncccn2)CC1)c1ccccc1
EC50 [1]: > 20 µM | Papp at 10 h [2]: 13.6 ×10⁻⁶ cm/s

COc1cc(/C=C/C=C(/C(=O)N2CCN(c3ncccn3)CC2)c2ccc(O)c(OC)c2)ccc1O
Activity [6]: 79.5% | EC50 [1]: 4 µM | Papp at 10 h [2]: 5.3 ×10⁻⁶ cm/s

COc1ccc(/C=C/C=C(/C(=O)N2CCN(c3ncccn3)CC2)c2ccccc2)cc1
EC50 [1]: > 20 µM | Papp at 10 h [2]: 15.7 ×10⁻⁶ cm/s

COc1cccc(OC)c1/C=C/C=C(/C(=O)N1CCN(c2ncccn2)CC1)c1ccccc1
EC50 [1]: > 20 µM

O=C(/C(=C/C=C/c1ccccc1)c1ccc(O)cc1)N1CCN(c2ncccn2)CC1
EC50 [1]: > 20 µM | Papp at 10 h [2]: 8.3 ×10⁻⁶ cm/s

CC(=O)N(O)CCCCCNC(=O)CCC(=O)N(O)CCCCCNC(=O)CCC(=O)N(O)CCCCCN
Activity [27]: Active | Activity [28]: Active

COc1cc(/C(=C\C=C\c2ccccc2)C(=O)N2CCN(c3ncccn3)CC2)ccc1O
EC50 [1]: > 20 µM | Papp at 10 h [2]: 10.2 ×10⁻⁶ cm/s

COc1ccc(/C(=C\C=C\c2ccccc2)C(=O)N2CCN(c3ncccn3)CC2)cc1OC
EC50 [1]: > 20 µM | Papp at 10 h [2]: 16.4 ×10⁻⁶ cm/s
